Measured values taken from patent US6630303B1, “Methods of screening for compounds active on Staphylococcus aureus target genes” (priority 1995, dated 2003).

Key:
[1] = system: ts S. typhimurium mutant alleles of the gyrase subunit A; experiment: Hypersusceptibility (MIC) of S. typhimurium gyrA ts mutants at semi-permissive temperature; format: cell-based, Salmonella typhimurium
Method: As an illustration of the hypersusceptibility profiles for a group of bacterial ts mutant strains, the minimal inhibitory concentrations (MICs) of various drugs and toxic agents were determined for a set of Salmonella typhimurium temperature-sensitive essential gene mutants.
The MICs were measured by using a standard micro broth dilution technique following the recommendations of the National Committee for Clinical Laboratory Standards (1994). Bacteria were first grown in Mueller-Hinton broth at 30° C., diluted to 10^5 cfu/ml and used to inoculate 96-microwell plates containing two-fold dilutions of antibiotics in Mueller-Hinton broth. Plates were incubated for 20 h at a semi-permissive temperature (35° C.) and the MIC was determined as the lowest dilution of antibiotic preventing visible growth.
A two-fold difference in the susceptibility level of the mutant strain compared to that of the parental strain is within the limits of the experimental variation and thus a ≧4-fold decrease in MIC was considered as a significant hypersusceptibility.
The specific hypersensitivity of temperature sensitive mutations in a known target to inhibitors of that target is shown in FIG. 1 with the susceptibility profile of three ts S. typhimurium mutant alleles of the gyrase subunit A (gyrA212, gyrA215 and gyrA216) grown at a semi-permissive temperature (35° C.).

[2] = system: Salmonella wild type parent strain; experiment: Carbon source utilization profile (gene sensor methodology); format: cell-based; settings: sublethal concentration; carbon source not used by the dapA or murCEFG mutant
Source text: The growth conditional mutants are also used in gene sensor methodology, e.g., using carbon utilization profiles. Ts mutants fail to metabolize different carbon sources in semi-permissive growth conditions. The carbon sources not utilized by a specific mutant or group of mutants provide additional phenotypes associated with the crippled essential function. Moreover, some of these carbon source markers were also not used by the wild type strain exposed to sub-MIC concentrations of known drugs affecting the same specific cellular targets or pathways.

[3] = mutant gyrA215, semi-permissive temperature 35° C.
[4] = mutant gyrA222, semi-permissive temperature 35° C.

CCn1cc(C(=O)O)c(=O)c2cc(F)c(N3CCNCC3)cc21 [norfloxacin]
hypersusceptibility compared to wild-type parent strain [1, 3]: hypersusceptibility | hypersusceptibility compared to wild-type parent strain [1, 4]: hypersusceptibility

O=C(O)c1cn(C2CC2)c2cc(N3CCNCC3)c(F)cc2c1=O [ciprofloxacin]
hypersusceptibility compared to wild-type parent strain [1, 4]: hypersusceptibility

Cn1nnnc1SCC1=C(C(=O)O)N2C(=O)[C@@H](NC(=O)[C@H](O)c3ccccc3)[C@H]2SC1 [cefamandole]
carbon source metabolism [2]: prevented the Salmonella wild type parent strain from metabolizing the same carbon source

coumermycin
hypersusceptibility compared to wild-type parent strain [1, 3]: hypersusceptibility | hypersusceptibility compared to wild-type parent strain ([1]; mutant gyrA276, semi-permissive temperature 35° C.): hypersusceptibility
